Source: patent publication US20220202783A1, “Use Of ADAM9 Inhibitor As Immunomodulator” (China Medical University, priority 2019, published 2022)

Test system: TC1 subcutaneous lung tumor
Experiment: co-treatment of ADAM9 inhibitor and checkpoint inhibitor, CD8+ T cells to TReg ratio in tumors
Assay type: in vivo, mice
Conditions: co-treated with anti-PDL1 antibody; vs vehicle, SW1 alone or anti-PDL1 antibody alone
Procedure: To further analyze whether the ADAM9 inhibitor and the checkpoint inhibitor have a synergistic effect, in the experiment, TC1 subcutaneous lung tumor mice were treated alone with the ADAM9 inhibitor (the compound SW1), the checkpoint inhibitor (anti-PDL1 antibody) or co-treated with the ADAM9 inhibitor (the compound SW1) and the checkpoint inhibitor (anti-PDL1 antibody), and the ratio of CD8^+ T cells and regulatory T cells (TReg) in tumors of TC1 subcutaneous lung tumor mice was analyzed. The experiment also included a control group treated with vehicle (DMSO).

## O=C1c2ccccc2C(=O)N1CCc1csc(Nc2nc(CCN3C(=O)c4ccccc4C3=O)cs2)n1 [SW1]
  ratio of CD8+ T cells to regulatory T cells (TReg) in tumors: increased significantly
